From PubChem BioAssay AID328 (DTP/NCI, 2004)
Values joined by “and” are separate entries in the source; they are usually repeats but may differ in a detail not shown here. Equal entries are not always repeated. Toxic doses and inconclusive results are not listed.

System: BDF1 mice, P388 leukemia ip, median survival T/C
Assay: NCI In Vivo Anticancer Drug Screen. Data for tumor model P388 Leukemia (intraperitoneal) in B6D2F1 (BDF1) mice
Conditions: endpoint: median survival time, higher = longer survival
Summary of the method: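 Reported as T/C, where T is the survival measurement in dosed animals and C the same measurement in vehicle controls.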

[1] = dose: 12.5 mg/kg/injection, schedule: Q01DX009 (ip), vehicle: saline with Tween-80
[2] = dose: 100.0 mg/kg/injection, schedule: Q04DX003 (ip), vehicle: Klucel (hydroxypropylcellulose) (HPC)
[3] = dose: 200.0 mg/kg/injection, schedule: Q04DX003 (ip), vehicle: Klucel (hydroxypropylcellulose) (HPC)
[4] = dose: 400.0 mg/kg/injection, schedule: Q04DX003 (ip), vehicle: Klucel (hydroxypropylcellulose) (HPC)
[5] = dose: 50.0 mg/kg/injection, schedule: Q04DX003 (ip), vehicle: Klucel (hydroxypropylcellulose) (HPC)
[6] = dose: 50.0 mg/kg/injection, schedule: Q04DX003 (ip), vehicle: saline with Tween-80
[7] = dose: 100.0 mg/kg/injection, schedule: Q04DX003 (ip), vehicle: saline with Tween-80
[8] = dose: 200.0 mg/kg/injection, schedule: Q04DX003 (ip), vehicle: saline with Tween-80

CC1CN=C(c2ccc(NC(=O)c3ccc(C(=O)Nc4ccc(C5=NCC(C)N5)cc4)c(N)c3)cc2)N1 (configuration not stated)
T/C (dose: 6.7 mg/kg/injection, schedule: Q04DX003 (ip), vehicle: saline with Tween-80): 150 % of control
T/C (dose: 10.0 mg/kg/injection, schedule: Q04DX003 (ip), vehicle: saline with Tween-80): 163 % of control
T/C (dose: 15.0 mg/kg/injection, schedule: Q04DX003 (ip), vehicle: saline with Tween-80): 172 % of control and 177 % of control

CCCCCOc1cc(C(=O)NN)nc(C(=O)NN)c1
T/C (dose: 1.56 mg/kg/injection, schedule: Q01DX009 (ip), vehicle: saline with Tween-80): 103 % of control
T/C (dose: 3.13 mg/kg/injection, schedule: Q01DX009 (ip), vehicle: saline with Tween-80): 111 % of control
T/C (dose: 6.25 mg/kg/injection, schedule: Q01DX009 (ip), vehicle: saline with Tween-80): 111 % of control
T/C [1]: 116 % of control

O=C(OCC#CC#CCOC(=O)c1ccccc1)c1ccccc1
T/C (dose: 100.0 mg/kg/injection, schedule: Q01DX009 (ip), vehicle: Klucel (hydroxypropylcellulose) (HPC)): 104 % of control
T/C [2]: 100 % of control
T/C (dose: 200.0 mg/kg/injection, schedule: Q01DX009 (ip), vehicle: Klucel (hydroxypropylcellulose) (HPC)): 113 % of control
T/C [3]: 90 % of control
T/C (dose: 400.0 mg/kg/injection, schedule: Q01DX009 (ip), vehicle: Klucel (hydroxypropylcellulose) (HPC)): 104 % of control
T/C [4]: 109 % of control

ClCCN(CCCl)CCN1c2ccccc2Sc2ccccc21
T/C (dose: 0.79 mg/kg/injection, schedule: Q01DX009 (ip), vehicle: Klucel (hydroxypropylcellulose) (HPC)): 90 % of control
T/C (dose: 1.1 mg/kg/injection, schedule: Q01DX009 (ip), vehicle: Klucel (hydroxypropylcellulose) (HPC)): 90 % of control
T/C (dose: 2.5 mg/kg/injection, schedule: Q01DX009 (ip), vehicle: saline with Tween-80): 150 % of control
T/C (dose: 4.0 mg/kg/injection, schedule: Q01DX009 (ip), vehicle: Klucel (hydroxypropylcellulose) (HPC)): 170 % of control
T/C (dose: 5.0 mg/kg/injection, schedule: Q01DX009 (ip), vehicle: saline with Tween-80): 186 % of control
T/C (dose: 9.37 mg/kg/injection, schedule: Q01DX009 (ip), vehicle: Klucel (hydroxypropylcellulose) (HPC)): 150 % of control
T/C (dose: 10.0 mg/kg/injection, schedule: Q01DX009 (ip), vehicle: saline with Tween-80): 186 % of control
T/C (dose: 12.5 mg/kg/injection, schedule: Q04DX003 (ip), vehicle: Klucel (hydroxypropylcellulose) (HPC)): 160 % of control
T/C (dose: 17.0 mg/kg/injection, schedule: Q04DX003 (ip), vehicle: Klucel (hydroxypropylcellulose) (HPC)): 166 % of control
T/C (dose: 17.5 mg/kg/injection, schedule: Q04DX003 (ip), vehicle: Klucel (hydroxypropylcellulose) (HPC)): 185 % of control
T/C (dose: 20.0 mg/kg/injection, schedule: Q01DX009 (ip), vehicle: saline with Tween-80): 95 % of control
T/C (dose: 23.0 mg/kg/injection, schedule: Q04DX003 (ip), vehicle: Klucel (hydroxypropylcellulose) (HPC)): 109 % of control
T/C (dose: 25.0 mg/kg/injection, schedule: Q04DX003 (ip), vehicle: Klucel (hydroxypropylcellulose) (HPC)): 175 % of control and 200 % of control
T/C (dose: 35.0 mg/kg/injection, schedule: Q04DX003 (ip), vehicle: Klucel (hydroxypropylcellulose) (HPC)): 109 % of control and 210 % of control
T/C (dose: 37.0 mg/kg/injection, schedule: Q04DX003 (ip), vehicle: Klucel (hydroxypropylcellulose) (HPC)): 185 % of control
T/C (dose: 37.5 mg/kg/injection, schedule: Q01DX009 (ip), vehicle: Klucel (hydroxypropylcellulose) (HPC)): 170 % of control
T/C [5]: 109 % of control
T/C [6]: 104 % of control

CCOC(=O)CCc1nc(C(=O)OCC)c(C)c2nnnn12
T/C [7]: 99 % of control
T/C [8]: 108 % of control
T/C (dose: 400.0 mg/kg/injection, schedule: Q04DX003 (ip), vehicle: saline with Tween-80): 95 % of control

Cc1ccc(S(=O)(=O)N(C)c2ccc(I)c(Cl)c2Cl)cc1
T/C [2]: 100 % of control
T/C [3]: 90 % of control
T/C [4]: 90 % of control

ClCCN(CCCl)CCCN1c2ccccc2Sc2ccccc21
T/C (dose: 3.12 mg/kg/injection, schedule: Q04DX003 (ip), vehicle: saline with Tween-80): 150 % of control
T/C (dose: 12.5 mg/kg/injection, schedule: Q04DX003 (ip), vehicle: saline with Tween-80): 158 % of control and 169 % of control
T/C (dose: 25.0 mg/kg/injection, schedule: Q04DX003 (ip), vehicle: saline with Tween-80): 152 % of control

CCCCCCCC[N+](C)(C)CCSCC[N+](C)(C)CCCCCCCC
T/C [1]: 109 % of control

O=Nc1c(S(=O)(=O)O)cc2cc(S(=O)(=O)O)cc(O)c2c1O.[Cu+2]
T/C (dose: 1.25 mg/kg/injection, schedule: Q04DX003 (ip), vehicle: saline): 97 % of control
T/C (dose: 2.5 mg/kg/injection, schedule: Q04DX003 (ip), vehicle: saline): 91 % of control
T/C (dose: 5.0 mg/kg/injection, schedule: Q04DX003 (ip), vehicle: saline): 115 % of control

CC1NC(=O)C2Cc3ccc(O)c(c3)Oc3cccc(c3)C(O)C(C(=O)N2C)N(C)C(=O)C(C)NC(=O)C(Cc2ccc(O)c(O)c2)N(C)C(=O)C(C)NC1=O (configuration not stated)
T/C (dose: 0.25 mg/kg/injection, schedule: Q01DX009 (ip), vehicle: distilled water + Tween-80): 94 % of control
T/C (dose: 0.5 mg/kg/injection, schedule: Q01DX009 (ip), vehicle: distilled water + Tween-80): 99 % of control
T/C (dose: 1.0 mg/kg/injection, schedule: Q01DX009 (ip), vehicle: distilled water + Tween-80): 94 % of control
T/C (dose: 2.0 mg/kg/injection, schedule: Q01DX009 (ip), vehicle: distilled water + Tween-80): 96 % of control
T/C (dose: 4.0 mg/kg/injection, schedule: Q01DX009 (ip), vehicle: distilled water + Tween-80): 99 % of control
T/C (dose: 8.0 mg/kg/injection, schedule: Q01DX009 (ip), vehicle: distilled water + Tween-80): 99 % of control

O=C1c2ccccc2CCCC12OC2c1ccccc1 (configuration not stated)
T/C (dose: 75.0 mg/kg/injection, schedule: Q04DX003 (ip), vehicle: Klucel (hydroxypropylcellulose) (HPC)): 95 % of control
T/C (dose: 150.0 mg/kg/injection, schedule: Q04DX003 (ip), vehicle: Klucel (hydroxypropylcellulose) (HPC)): 104 % of control
T/C (dose: 300.0 mg/kg/injection, schedule: Q04DX003 (ip), vehicle: Klucel (hydroxypropylcellulose) (HPC)): 90 % of control

CC(C)Cc1c(N)nc(=S)[nH]c1C(=O)O
T/C [5]: 89 % of control
T/C [2]: 107 % of control
T/C [3]: 96 % of control

CSC(=S)NNC(=O)c1ccc([N+](=O)[O-])cc1
T/C (dose: 3.13 mg/kg/injection, schedule: Q04DX003 (ip), vehicle: saline sonified): 90 % of control
T/C (dose: 6.25 mg/kg/injection, schedule: Q04DX003 (ip), vehicle: saline sonified): 100 % of control
T/C (dose: 12.5 mg/kg/injection, schedule: Q04DX003 (ip), vehicle: saline sonified): 95 % of control

OCCCC1CCCCN1 (configuration not stated)
T/C (dose: 25.0 mg/kg/injection, schedule: Q04DX003 (ip), vehicle: saline): 115 % of control
T/C (dose: 50.0 mg/kg/injection, schedule: Q04DX003 (ip), vehicle: saline): 100 % of control
T/C (dose: 100.0 mg/kg/injection, schedule: Q04DX003 (ip), vehicle: saline): 105 % of control

CC[N+](CC)(CC)CCC[N+](CC)(CC)CC
T/C (dose: 50.0 mg/kg/injection, schedule: Q01DX009 (ip), vehicle: water): 89 % of control
T/C (dose: 100.0 mg/kg/injection, schedule: Q04DX003 (ip), vehicle: water): 109 % of control
T/C (dose: 200.0 mg/kg/injection, schedule: Q04DX003 (ip), vehicle: water): 90 % of control

Brc1ccc(C#Cc2ccccc2)cc1
T/C (dose: 100.0 mg/kg/injection, schedule: Q01DX001 (ip), vehicle: Klucel (hydroxypropylcellulose) (HPC)): 104 % of control
T/C (dose: 200.0 mg/kg/injection, schedule: Q01DX001 (ip), vehicle: Klucel (hydroxypropylcellulose) (HPC)): 108 % of control
T/C (dose: 400.0 mg/kg/injection, schedule: Q01DX001 (ip), vehicle: Klucel (hydroxypropylcellulose) (HPC)): 108 % of control

CN(C)C=C1C(=O)N(C)C(=O)N(C)C1=O
T/C (dose: 100.0 mg/kg/injection, schedule: Q04DX002 (ip), vehicle: saline): 101 % of control
T/C (dose: 200.0 mg/kg/injection, schedule: Q04DX002 (ip), vehicle: saline): 108 % of control
T/C (dose: 400.0 mg/kg/injection, schedule: Q04DX002 (ip), vehicle: saline): 112 % of control

Cc1cc(=O)[nH]c2c1CCC2
T/C (dose: 50.0 mg/kg/injection, schedule: Q01DX009 (ip), vehicle: saline with Tween-80): 109 % of control
T/C [6]: 100 % of control
T/C (dose: 100.0 mg/kg/injection, schedule: Q01DX009 (ip), vehicle: saline with Tween-80): 90 % of control
T/C [7]: 100 % of control
T/C (dose: 200.0 mg/kg/injection, schedule: Q01DX009 (ip), vehicle: saline with Tween-80): 104 % of control
T/C [8]: 100 % of control
